SMILES strings stand for the structures. In brackets after ≈: the same amount, converted by molar mass. *1 amine or outer side, *2 acyl side, *3 side chain or, on linkers, in order; H or OH if unused. Where a SMILES comes first, the peptide text is derived from it. Bridges are numbered along the chain shown (N, C = ends). Roman numbers before positions name the chains, in order. [ ]: non-standard residue; d: D form. Actinocin(1to9) = Cc1c2oc3c(C)ccc(C(=O)[*:2])c3nc-2c(C(=O)[*:1])c(N)c1=O; NMeV = CN[C@H](C(=O)O)C(C)C; Sar = CNCC(=O)O

This is an account of results in ChEMBL document CHEMBL5608170, “An insight into sustainable and green chemistry approaches for the synthesis of quinoline derivatives as anticancer agents” (Eur J Med Chem, 2024).

One test concerns HepG2. Put plainly: Cytotoxicity against human HepG2 cells assessed as reduction in cell viability incubated for 24 hrs by MTT assay. The class given is functional, cell-based. The conditions noted are these: HepG2, 24 h.
Another test concerns MCF7. Put plainly: Cytotoxicity against human MCF7 cells assessed as reduction in cell viability incubated for 24 hrs by MTT assay. Type of test: functional, cell-based. The conditions noted are these: MCF7, 24 h.
Another test deals with HCT 116 TP53(-/-). Put plainly: Antiproliferative activity against human HCT116-p53-null cells assessed as reduction in cell viability by MTT assay. Type of test: functional, cell-based.
Test [1] has as its system MDA-MB-231. Put plainly: Cytotoxicity against human MDA-MB-231 cells assessed as reduction in cell viability incubated for 48 hrs by MTT assay. Type of test: functional, cell-based. Particulars: MDA-MB-231, 48 h.
The subject of a further test is DU-145. Description: Cytotoxicity against human DU-145 cells assessed as reduction in cell growth measured for 48 hrs by MTT assay. Type of test: functional, cell-based. The conditions noted are these: DU-145, 48 h.
In a further test the test system is PC-3. Put plainly: Cytotoxicity against human PC-3 cells assessed as reduction in cell growth measured for 48 hrs by MTT assay. Type of test: functional, cell-based. The conditions noted are these: PC-3, 48 h.
In a further test the test system is HT-29. Description: Cytotoxicity against human HT-29 cells assessed as reduction in cell viability incubated for 72 hrs by MTT assay. Particulars: HT-29, 72 h. The class given is functional, cell-based.
Test [2] relates to A549. Description: Cytotoxicity against human A549 cells assessed as reduction in cell viability incubated for 72 hrs by MTT assay. Particulars: A549, 72 h. The class given is functional, cell-based.
Test [3] concerns HeLa. Description: Growth inhibition of human HeLa cells by SRB assay. Type of test: functional.
For another test, the system named is HCT-116. Description: Cytotoxicity against human HCT-116 cells assessed as reduction in cell viability incubated for 24 hrs by MTT assay. The conditions noted are these: HCT-116, 24 h. Type of test: functional, cell-based.
The test system of test [4] is A549. Put plainly: Cytotoxicity against human A549 cells assessed as reduction in cell viability incubated for 24 hrs by MTT assay. Type of test: functional, cell-based. Particulars: A549, 24 h.
For test [5], the system named is MDA-MB-231. Put plainly: Cytotoxicity against human MDA-MB-231 cells assessed as reduction in cell growth measured for 48 hrs by MTT assay. The class given is functional, cell-based. Particulars: MDA-MB-231, 48 h.
Another test relates to NCI-H460. Put plainly: Antiproliferative activity against human NCI-H460 cells assessed as reduction in cell viability by MTT assay. Type of test: functional, cell-based.
The test system of test [6] is A549. Put plainly: Antiproliferative activity against human A549 cells assessed as reduction in cell viability by MTT assay. The class given is functional, cell-based.
Another test relates to B16-F10. Description: Cytotoxicity against mouse B16-F10 cells assessed as reduction in cell viability incubated for 48 hrs by MTT assay. The class given is functional, cell-based. The conditions noted are these: B16-F10, 48 h.
The next test relates to SW1573. Put plainly: Growth inhibition of human SW1573 cells. The class given is functional.
Another test deals with HBL-100. Description: Growth inhibition of human HBL-100 cells. The class given is functional.
Test [7] deals with HeLa. Put plainly: Growth inhibition of human HeLa cells. The class given is functional.
Test [8] deals with A549. Description: Growth inhibition of human A549 cells. The class given is functional.
A further test relates to WiDr. Description: Growth inhibition of human WiDr cells. The class given is functional.
The next test has as its system T47D. Put plainly: Growth inhibition of human T47D cells. The class given is functional.
Test [9] can be described thus: Cytotoxicity against human HEp-2C cells assessed as reduction in cell viability incubated for 72 hrs by MTT assay. The class given is functional, cell-based. The conditions noted are these: Hep2C.

For `Cc1ccc2ccc3c(c2n1)OC(N)=C(C#N)C3c1cccc(Cl)c1Cl` (stereo not drawn), the values for the half-inhibitory concentration (IC50) with HepG2 and in the test with MCF7 were 1.83 mg/L (≈ 4.79 µM) and 1.24 mg/L (≈ 3.24 µM), respectively.

Consider `O=[N+]([O-])c1c(Nc2ccc(F)c(Cl)c2)nc2ccccc2c1Nc1ccc(F)c(Cl)c1`, for which the half-inhibitory concentration (IC50) in the test on HCT 116 TP53(-/-) was 5.1 µM.

On to `COc1ncccc1-c1cc(-c2cn(Cc3ccccc3F)nn2)cc2ccc(C)nc12`, for which, in the test with MDA-MB-231 [1], the IC50 was 19.8 µM.

Consider `O=C1N(c2ccc(Cl)cc2)c2[nH]c(=O)[nH]c(=O)c2C12c1ccccc1Nc1c2[nH]c(=O)[nH]c1=O` (stereo not drawn), for which the figures for the IC50 in the test on DU-145 and in the test on PC-3 were 16.5 µM and 19.9 µM, respectively.

As for `COc1cc(/C=C2\OCc3nc4ccccc4c(-c4ccccc4)c3C2=O)cc(OC)c1OC`, the figures for the half-maximal inhibitory concentration (IC50) in the test with HT-29 and in the test with A549 [2] were 7.69 mg/L (≈ 17 µM) and 4.82 mg/L (≈ 10.6 µM), respectively.

In turn, `CC(=O)NC1=NN(C(C)=O)C(c2cc3cc(Br)ccc3n3nnnc23)S1` (stereo not drawn) gave a GI50 in the test with HeLa [3] of less than 0.1 µM.

`N#CC1=C(N)Oc2c(cc(Cl)c3cccnc23)C1c1cccc(Cl)c1` (stereo not drawn): the IC50 in the test with HepG2 stood at 0.7 mg/L (≈ 1.9 µM); in the test with HCT-116, 3.04 mg/L (≈ 8.26 µM); with A549 [4], 2.67 mg/L (≈ 7.25 µM); with MCF7, 0.9 mg/L (≈ 2.44 µM).

On to `O=C1N(c2cccnc2)c2[nH]c(=O)[nH]c(=O)c2C12c1ccccc1Nc1c2[nH]c(=O)[nH]c1=O` (stereo not drawn), for which the IC50 in the test on DU-145 was 15 µM; in the test with MDA-MB-231 [5] it was 7.97 µM; in the test on PC-3 it was 15.4 µM.

As for `O=C1N(c2ccccc2S)c2[nH]c(=O)[nH]c(=O)c2C12c1ccccc1Nc1c2[nH]c(=O)[nH]c1=O` (stereo not drawn), the IC50 in the test on DU-145 was found to be 17.7 µM; in the test on PC-3, 18.4 µM.

With `COc1ccccc1Nc1nc2ccccc2c(Nc2ccccc2OC)c1[N+](=O)[O-]`, the 50% inhibitory concentration (IC50) in the test on NCI-H460 came out at 5.4 µM; in the test on A549 [6], 6.5 µM.

As for `Cc1ccc2ccc3c(c2n1)OC(N)=C(C#N)C3c1cccc(Cl)c1` (stereo not drawn), the figures for the IC50 in the test with HepG2 and with MCF7 were 3.01 mg/L (≈ 8.65 µM) and 5.79 mg/L (≈ 16.6 µM), respectively.

Turning to `CNC(=O)c1cccc2cc(Oc3ccnc4cc(OCC5(N)CC5)c(OC)cc34)ccc12` [LUCITANIB], the IC50 in the test with B16-F10 was determined as 16.3 µM.

On to `Cc1c2oc3c(C)ccc(C(=O)N[C@@H]4C(=O)N[C@H](C(C)C)C(=O)N5CCC[C@H]5C(=O)N(C)CC(=O)N(C)[C@@H](C(C)C)C(=O)O[C@@H]4C)c3nc-2c(C(=O)N[C@@H]2C(=O)N[C@H](C(C)C)C(=O)N3CCC[C@H]3C(=O)N(C)CC(=O)N(C)[C@@H](C(C)C)C(=O)O[C@@H]2C)c(N)c1=O` [DACTINOMYCIN] (I: T[dV]P[Sar][NMeV] / II: T[dV]P[Sar][NMeV]; ester I:1-I:C, II:1-II:C; linker I:N-II:N via Actinocin(1to9)), for which the 50% inhibitory concentration (IC50) in the test with B16-F10 is 13.4 µM.

Take `COc1cc2nccc(Oc3ccc(NC(=O)C4(C(=O)Nc5ccc(F)cc5)CC4)cc3)c2cc1OC` [CABOZANTINIB]: the 50% growth inhibitory concentration (GI50) with SW1573 was 6 µM; with HBL-100, 17 µM; in the test with HeLa [7], 11 µM; in the test with A549 [8] it was 9.5 µM; in the test on WiDr it was 14 µM; in the test with T47D, 16 µM.

In the case of `N#CC1=C(N)Oc2c(cc(Cl)c3cccnc23)C1c1ccc(Cl)cc1Cl` (stereo not drawn), the 50% inhibitory concentration (IC50) in the test with HepG2 was found to be 0.87 mg/L (≈ 2.16 µM); with HCT-116, 3.01 mg/L (≈ 7.48 µM); with A549 [4] it was 1.79 mg/L (≈ 4.45 µM); in the test with MCF7, 1.18 mg/L (≈ 2.93 µM).

On to `Clc1cccc(NCN2CCCc3ccccc32)c1`, for which the IC50 in [9] was determined as 11.9 µM.

`COc1ccc(Nc2nc3ccccc3c(Nc3ccc(OC)cc3)c2[N+](=O)[O-])cc1`: the 50% inhibitory concentration (IC50) in the test on NCI-H460 turned out to be 7.1 µM; in the test on A549 [6], 11.2 µM.

As to `COc1cc2c(Oc3ccc4[nH]c(C)cc4c3F)ccnc2cc1OCC1(N)CC1` [CATEQUENTINIB], in the test on MDA-MB-231 [1], the 50% inhibitory concentration (IC50) stood at 17 µM.

As to `N#CC1=C(N)Oc2c(cc(Cl)c3cccnc23)C1c1ccc(Br)cc1` (stereo not drawn), the IC50 with HepG2 amounted to 1.23 mg/L (≈ 2.98 µM); in the test with HCT-116 it was 5.81 mg/L (≈ 14.1 µM); in the test on A549 [4] it was 3.1 mg/L (≈ 7.51 µM); in the test on MCF7, 0.99 mg/L (≈ 2.4 µM).

As for `O=C1N(c2ccc([N+](=O)[O-])cc2[N+](=O)[O-])c2[nH]c(=O)[nH]c(=O)c2C12c1ccccc1Nc1c2[nH]c(=O)[nH]c1=O` (stereo not drawn), in the test on MDA-MB-231 [5], the concentration for half-maximal inhibition (IC50) stood at 10.6 µM.
